Data from patent publication US20260144784A1, “COMPOSITION FOR PREVENTING OR TREATING MELAS SYNDROME, CONTAINING ISOPQUINOLINE DERIVATIVE AS ACTIVE INGREDIENT” (ALTMEDICAL CO., LTD., priority 2022, published 2026).

How the values were obtained:
[1] = system: mitochondrial membrane potential; experiment: mitochondrial membrane potential, TMRM assay; assay type: cell-based; conditions: CD1-012 10 μM or 15 μM, CCCP 10 μM, 24 hours
Procedure: (§1) It was confirmed whether the isoquinoline derivative according to the present invention induces mitochondrial dysfunction, similar to CCCP. To this end, the CD1-012 (10 μM or 15 μM) and CCCP (10 μM) were treated for 24 hours, and the mitochondrial membrane potential and mitochondrial reactive oxygen species (ROS) levels in each sample were analyzed. Mitochondrial membrane potential was analyzed using the TMRM (tetramethylrhodamine methyl ester) assay, and mitochondrial ROS levels were analyzed using the MitoSOX assay.

[2] = system: PINK1 knockdown cell line (shPINK1); experiment: mitophagy activity by FACS in PINK1 knockdown BEAS-2B cell line; assay type: cell-based, human; conditions: CCCP 10 μM, CD1-012 15 μM, 18 hours
Procedure: In this example, it was confirmed whether the mitophagy activation function of the isoquinoline derivative according to the present invention is dependent on the PINK1-Parkin pathway. To this end, after a BEAS-2B cell line, in which PINK1 was knocked down using short hairpin RNA (shRNA), was treated with CCCP (10 μM) of Comparative Example 1 or CD1-012 (15 μM) for 18 hours, the mitophagy activity of each sample was analyzed using flow cytometry (FACS).

[3] = system: mitochondrial reactive oxygen species (ROS); experiment: mitochondrial reactive oxygen species, MitoSOX assay; assay type: cell-based; conditions: CD1-012 10 μM or 15 μM, CCCP 10 μM, 24 hours
Procedure: as §1

BEAS-2B cell line [4] = experiment: autophagy activity, Keima fluorescent protein in BEAS-2B cells (confocal microscope); assay type: cell-based, human; conditions: BEAS-2B Keima; 15 μM 18 hours, FIG. 4B
Procedure: (§2) It was confirmed whether CD1-012 synthesized in Example 1 specifically increases only mitophagy activity. To this end, the BEAS-2B cell line expressing mt-Keima was treated with CD1-012 (15 μM) or Comparative Example 1 (CCCP, 10 μM) for 18 hours, and mitophagy activity was analyzed using a confocal microscope. Additionally, to measure autophagy activity, the BEAS-2B cell line expressing Keima fluorescent protein was incubated in Hanks' balanced salt solution (HBSS) for 3 hours to induce a starvation condition (starv.), and the results were compared with samples treated with CD1-012 (15 μM) for 18 hours using a confocal microscope.

[5] = system: MELAS syndrome patient-derived cells; experiment: mitochondrial protein levels (SDHA, SDHB) by Western blot in MELAS syndrome patient-derived cells; assay type: cell-based, human; conditions: 24 hours
Procedure: As confirmed in the previous example, mitochondrial dysfunction is observed in MELAS syndrome patient-derived cells, and in the present example, it was confirmed whether the compound according to the present invention can promote mitophagy activity in MELAS syndrome patient-derived cells. CD1-012 was treated in MELAS syndrome patient-derived cells at concentrations of 20 μM or 40 μM for 24 hours, and the levels of mitochondrial proteins SDHA and SDHB were analyzed by Western blot.

SH-SYSY cell line = experiment: mitophagy activity by flow cytometry in SH-SY5Y cells expressing mt-Keima; assay type: cell-based, human; conditions: FACS
Procedure: (§3) It was confirmed whether CD1-012 synthesized in Example 1 increases mitophagy activity in various cell lines. To this end, CD1-012 and Comparative Example 1 (CCCP) were treated in the SH-SYSY cell line, a human neuroblastoma cell line expressing mt-Keima fluorescent protein, and in the HeLa-Parkin cell line, a HeLa cervical cancer cell line expressing Parkin (E3 ligase). Following this treatment, the mitophagy activity of each sample was analyzed using flow cytometry (FACS), and the results are shown in FIGS. 2A to 2B.

143B MELAS cell line [6] = experiment: ATP synthesis in 143B MELAS cell line; assay type: cell-based; conditions: 40 μM for 24 hours, measured 2 days later
Procedure: As confirmed through the previous examples, the compound according to the present invention can promote mitophagy in MELAS syndrome cells, and in the present example, it was confirmed whether the compound can improve mitochondrial dysfunction in MELAS syndrome cells. For this purpose, CD1-012 (40 μM) was treated in the 143B MELAS cell line for 24 hours, and ATP synthesis was measured 2 days later.

[7] = system: MELAS syndrome patient-derived cells; experiment: ATP levels in MELAS syndrome patient-derived cells; assay type: cell-based, human; conditions: 40 μM for 24 hours, measured 2 days later, untreated 76%
Procedure: In this example, it was confirmed whether the compound according to the present invention can improve mitochondrial dysfunction in MELAS syndrome patient-derived cells. CD1-012 was treated in MELAS syndrome patient-derived cells at a concentration of 40 μM for 24 hours, and ATP levels were measured 2 days later. As a result, it was confirmed that the ATP levels in MELAS syndrome patient-derived cells, which had decreased to 76% of those in normal cells, were restored to 95% of normal levels by CD1-012 treatment (FIG. 13).

HeLa-Parkin cell line = experiment: mitophagy activity by flow cytometry in HeLa-Parkin cells; assay type: cell-based; conditions: FACS
Procedure: as §3

143B MELAS cell line [8] = experiment: mitochondrial protein levels by Western blot in MELAS cell line; assay type: cell-based; conditions: FIG. 9C
Description: (§4) In the previous example, it was confirmed that mitochondrial dysfunction occurs in the MELAS syndrome cell line, and in the present example, it was confirmed whether the compound according to the present invention can promote mitophagy in the MELAS syndrome cell line. In order to verify the mitophagy activity-promoting effect of the CD1-012 compound in the 143B MELAS cell line, a mitophagy quantification method using the mt-Keima fluorescent protein, which enables quantitative measurement of mitophagy activity in live cells, was used (2015 Mol Cell, 60 (4): 685-696.doi: 10.1016/j.molcel.2015.10.009:2018 J Vis Exp. (138): 58099 doi: 10.3791/58099.). Specifically, mt-Keima fluorescent protein was expressed in the 143B MELAS cell line, and after treatment with CD1-012 at various concentrations, mitophagy activity was measured using a mitophagy activity measurement method using a fluorescence-activated cell sorter (FACS) or a confocal microscope. […] Additionally, as a result of investigating the reduction of mitochondrial proteins associated with increased mitophagy activity by Western blot, it was confirmed that the levels of SDHA and COX4 proteins decreased when treated with CD1-012 at concentrations of 10 μM or higher (FIG. 9C).

BEAS-2B cell line [9] = experiment: mitophagy activity, mt-Keima fluorescent protein in BEAS-2B cells (FACS, confocal microscope, mito-YFP); assay type: cell-based, human; conditions: BEAS-2B mt-Keima
Procedure: To analyze the mitophagy-promoting activity effect of the CD1-012 synthesized in the Example 1, the BEAS-2B cell line, which is a human normal lung cell line, was induced to express the mt-Keima fluorescent protein. Following this, the CD1-012 (15 μM) and the compound of Comparative Example 1, CCCP (10 μM), were treated for 24 hours. After the treatment, the mitophagy activity of each sample was measured, and the results were represented in FIGS. 1A to 1C.
Specifically, FIG. 1A represents the analysis results using flow cytometry (FACS) (treatment of CD1-012 at 15 μM for 24 hours), FIG. 1B represents the analysis results using a confocal microscope (treatment of CD1-012 at 15 μM for 18 hours), and FIG. 1C represents the measurement results of the quantitative changes in the mitochondria using a fluorescent protein, mito-YFP, which includes a targeting sequence to transport protein to the mitochondria (treatment of CD1-012 at 20 μM for 24 hours).
It was confirmed whether CD1-012 synthesized in Example 1 promotes mitophagy activity in a concentration- and time-dependent manner. To this end, the CD1-012 was treated at various concentrations or at a fixed concentration (15 μM) for different treatment durations in the BEAS-2B cell line expressing mt-Keima, and mitophagy activity was measured using a flow cytometer.
as §2
To this end, the human normal lung cell line BEAS-2B, expressing mt-Keima fluorescent protein, was treated with CD1-012, Comparative Example 2 (palmatine), or Comparative Example 3 (berberine) at various concentrations, and the mitophagy-inducing activity of each sample was compared.

143B MELAS cell line [10] = experiment: mitophagy activity, mt-Keima in 143B MELAS cell line (FACS, confocal microscope); assay type: cell-based; conditions: 143B MELAS mt-Keima
Description: as §4

N#CC(C#N)=NNc1cccc(Cl)c1 [CCCP, Carbonyl Cyanide 3-Chlorophenylhydrazone, reference compound]
mitochondrial membrane potential [1]: significantly reduced
mitophagy activation in PINK1 knockdown cell line (shPINK1) compared to control cell line (shNT) [2]: significantly decreased
mitochondrial ROS levels [3]: significantly increased

Oc1cc2c(cc1O)-c1cc3ccc(O)c(O)c3c[n+]1CC2 [CD1-012, 2,3,9,10-Tetrahydroxy-5,6-dihydroisoquinolino [3,2-a]isoquinolin-7-iumbromide]
autophagy activity compared to the untreated control group (BEAS-2B cell line [4]): no significant difference in autophagy activity
mitochondrial membrane potential [1]: no decrease in mitochondrial membrane potential was observed
mitochondrial protein levels (SDHA, SDHB) compared to the untreated control group ([5]; 20 μM): decrease in mitochondrial protein levels
mitochondrial protein expression (SDHA, SDHB) compared to the untreated control group ([5]; 40 μM): more pronounced decrease in mitochondrial protein expression
mitophagy activity compared to the control group (Con) (SH-SYSY cell line): significantly increased mitophagy activity
mitophagy activation in PINK1 knockdown cell line (shPINK1) compared to control cell line (shNT) [2]: did not show a significant difference
ATP level relative to the normal cell line levels (143B MELAS cell line [6]): 90%
increase in ATP levels versus untreated MELAS cells (143B MELAS cell line [6]): 131%
ATP levels (143B MELAS cell line [6]; untreated MELAS cells 39.6 nM): 51.9 nM
ATP levels relative to normal cells [7]: 95%
mitophagy activity compared to the control group (Con) (HeLa-Parkin cell line): significantly increased mitophagy activity
concentration at which the levels of SDHA and COX4 proteins decreased (143B MELAS cell line [8]): ≥ 10 µM
mitochondrial ROS levels [3]: no increase in mitochondrial ROS was detected
mitophagy activity compared with CCCP-treated sample (FIG. 1A) (BEAS-2B cell line [9]; FACS, 15 μM 24 hours vs CCCP 10 μM): increased as significantly as
concentration at which mitophagy activity reached a level comparable to the maximum of palmatine and berberine (BEAS-2B cell line [9]; FIG. 5): 10 UM
mitophagy-inducing activity relative to berberine (BEAS-2B cell line [9]; FIG. 5): approximately 8 times
mitophagy-inducing activity relative to palmatine (BEAS-2B cell line [9]; FIG. 5): approximately 40 times
concentration at which mitophagy activity began to significantly increase compared to untreated control (BEAS-2B cell line [9]; flow cytometer, FIG. 3A): ≥ 7.5 µM
mitophagy-promoting effect compared with CCCP (confocal microscope) (BEAS-2B cell line [9]; 15 μM 18 hours vs CCCP 10 μM, FIG. 4A): mitophagy-promoting effects similar to those observed in the CCCP-treated sample
mitophagy activity compared to the untreated control group (Con) (BEAS-2B cell line [9]; 15 μM 24 hours (FACS), 15 μM 18 hours (confocal), 20 μM 24 hours (mito-YFP)): significant increase in mitophagy activity
treatment time after which mitophagy activity began to significantly increase (BEAS-2B cell line [9]; 15 μM, FIG. 3B): 3 h
treatment time at which mitophagy activity reached its maximum level (BEAS-2B cell line [9]; 15 μM, FIG. 3B): 18 h
concentration dependence of mitophagy activity (BEAS-2B cell line [9]; up to the maximum treatment concentration of 17.5 μM): continued to increase in a concentration-dependent manner
concentration at which mitophagy activity in the MELAS cell line significantly increased (flow cytometry) (143B MELAS cell line [10]; FIG. 9A): ≥ 10 µM
mitophagy activity by confocal microscopy analysis (143B MELAS cell line [10]; 20 μM and 40 μM, FIG. 9B): increase in mitophagy activity

COc1ccc2cc3[n+](cc2c1OC)CCc1cc2c(cc1-3)OCO2 [berberine, Berberine, reference compound]
concentration at which mitophagy activity reached its maximum (BEAS-2B cell line [9]; FIG. 5): 80 µM

COc1cc2c(cc1OC)-c1cc3ccc(OC)c(OC)c3c[n+]1CC2 [palmatine, Palmatine, reference compound]
concentration at which mitophagy activity reached its maximum (BEAS-2B cell line [9]; FIG. 5): 400 µM
